# Measured values taken from patent US4663329A, “Thienopyridinone derivatives and anti-bacterial compositions containing them” (Sanofi, priority 1984, dated 1987).
# Where two headings read alike, the source gives them in different places.
# What was measured:
# Format in all cases: cell-based
# [1] = system: Staphylococcus aureus 53154 IP; experiment: In vitro antibacterial activity, MIC, Staphylococcus aureus 53154 IP; conditions: Staphylococcus aureus 53154 IP; 37° C., pH=7.4, inoculum 10^4; read-out: MIC
# Description: (§1) Tests carried out in vitro in accordance with the experimental procedure described hereunder have provided evidence of the antibacterial activity in question.
# (§2) For this purpose, the M.I.C. were determined i.e. the minimal inhibiting concentrations of the compound under study acting on the growth of the bacteria at 37° C.
# (§3) The serial dilutions method was used utilizing a MUELLER HINTON gelose medium at pH=7.4 and a bacterial inoculum of 10^4 units forming colonies. This inoculum was applied to the gelose by means of a multiple sowing device.
# (§4) A scale of concentrations ranging from 100 to 0.05 μg/ml of compound to be studied was used starting from mother solutions titrating 1000 μg/ml, all the subsequent dilutions being effected in distilled water.
# [2] = system: Streptococcus faecalis 5855 IP; experiment: In vitro antibacterial activity, MIC, Streptococcus faecalis 5855 IP; conditions: Enterococcus faecalis, 37° C., pH=7.4, inoculum 10^4, read-out: MIC
# Description: as §1, §2, §3, §4
# [3] = system: Bacillus subtilis ATCC 6633; experiment: In vitro antibacterial activity, MIC, Bacillus subtilis ATCC 6633; conditions: ATCC6633
# Description: as §1, §2, §3, §4
# [4] = system: Escherichia coli 54127 IP; experiment: In vitro antibacterial activity, MIC, Escherichia coli 54127 IP; conditions: Escherichia coli 54127 IP; 37° C., pH=7.4, inoculum 10^4; read-out: MIC
# Description: as §1, §2, §3, §4
# [5] = system: Escherichia coli SOL RL 90; experiment: In vitro antibacterial activity, MIC, Escherichia coli SOL RL 90; conditions: SOLRL90
# Description: as §1, §2, §3, §4
# [6] = system: Citrobacter freundii GN 346; experiment: In vitro antibacterial activity, MIC, Citrobacter freundii GN 346; conditions: GN346
# Description: as §1, §2, §3, §4
# [7] = system: Proteus vulgaris RL 99 bis; experiment: In vitro antibacterial activity, MIC, Proteus vulgaris RL 99 bis; conditions: RL99BIS
# Description: as §1, §2, §3, §4
# [8] = system: Proteus mirabilis ATCC 21100; experiment: In vitro antibacterial activity, MIC, Proteus mirabilis ATCC 21100; conditions: ATCC21100
# Description: as §1, §2, §3, §4
# Proteus morganii 1510 = experiment: In vitro antibacterial activity, MIC, Proteus morganii 1510; conditions: Morganella morganii
# Description: as §1, §2, §3, §4
# [9] = system: Providencia stuartii 5158; experiment: In vitro antibacterial activity, MIC, Providencia stuartii 5158; conditions: Providencia stuartii 5158; 37° C., pH=7.4, inoculum 10^4; read-out: MIC
# Description: as §1, §2, §3, §4
# [10] = system: Serratia liquefaciens 376; experiment: In vitro antibacterial activity, MIC, Serratia liquefaciens 376; conditions: 37° C., pH=7.4, inoculum 10^4, read-out: MIC
# Description: as §1, §2, §3, §4
# [11] = system: Klebsiella pneumoniae ATCC 10031; experiment: In vitro antibacterial activity, MIC, Klebsiella pneumoniae ATCC 10031; conditions: ATCC10031; Klebsiella pneumoniae ATCC 10031; 37° C., pH=7.4, inoculum 10^4; read-out: MIC
# Description: as §1, §2, §3, §4
# [12] = system: Klebsiella pneumoniae R 30; experiment: In vitro antibacterial activity, MIC, Klebsiella pneumoniae R 30; conditions: R30; Klebsiella pneumoniae R 30; 37° C., pH=7.4, inoculum 10^4; read-out: MIC
# Description: as §1, §2, §3, §4
# [13] = system: Enterobacter cloacae P 99; experiment: In vitro antibacterial activity, MIC, Enterobacter cloacae P 99; conditions: Enterobacter cloacae, P99
# Description: as §1, §2, §3, §4
# [14] = system: Enterobacter hafniae RO 46; experiment: In vitro antibacterial activity, MIC, Enterobacter hafniae RO 46; conditions: Hafnia alvei, RO46; Enterobacter hafniae RO 46; 37° C., pH=7.4, inoculum 10^4; read-out: MIC
# Description: as §1, §2, §3, §4
# Shigella sonnei R 018 = experiment: In vitro antibacterial activity, MIC, Shigella sonnei R 018; conditions: R018, 37° C., pH=7.4, inoculum 10^4
# Description: as §1, §2, §3, §4
# [15] = system: Salmonella typhimurium A 222 IP; experiment: In vitro antibacterial activity, MIC, Salmonella typhimurium A 222 IP; conditions: Salmonella enterica
# Description: as §1, §2, §3, §4
# [16] = system: Salmonella typhi ATCC 6539; experiment: In vitro antibacterial activity, MIC, Salmonella typhi ATCC 6539; conditions: Salmonella enterica
# Description: as §1, §2, §3, §4
# [17] = system: Bordetella bronchiseptica ATCC 4617; experiment: In vitro antibacterial activity, MIC, Bordetella bronchiseptica ATCC 4617; conditions: ATCC4617, 37° C., pH=7.4, inoculum 10^4, read-out: MIC
# Description: as §1, §2, §3, §4
# [18] = system: Pseudomonas aeruginosa 8203; experiment: In vitro antibacterial activity, MIC, Pseudomonas aeruginosa 8203; conditions: 37° C., pH=7.4, inoculum 10^4, read-out: MIC
# Description: as §1, §2, §3, §4
# [19] = system: Acinetobacter calcoaceticus C 1733; experiment: In vitro antibacterial activity, MIC, Acinetobacter calcoaceticus C 1733; conditions: C1733, 37° C., pH=7.4, inoculum 10^4, read-out: MIC
# Description: as §1, §2, §3, §4
# [20] = Bacillus subtilis ATCC 6633, 37° C., pH=7.4, inoculum 10^4, read-out: MIC
# [21] = Escherichia coli SOL RL 90, 37° C., pH=7.4, inoculum 10^4, read-out: MIC
# [22] = Citrobacter freundii GN 346, 37° C., pH=7.4, inoculum 10^4, read-out: MIC
# [23] = Proteus vulgaris RL 99 bis, 37° C., pH=7.4, inoculum 10^4, read-out: MIC
# [24] = Proteus mirabilis ATCC 21100, 37° C., pH=7.4, inoculum 10^4, read-out: MIC
# [25] = Proteus morganii 1510, 37° C., pH=7.4, inoculum 10^4, read-out: MIC
# [26] = Salmonella typhimurium A 222 IP, 37° C., pH=7.4, inoculum 10^4, read-out: MIC
SMILES,MIC [1] [µg/mL],MIC [2] [µg/mL],"MIC [3, 20] [µg/mL]",MIC [4] [µg/mL],"MIC [5, 21] [µg/mL]","MIC [6, 22] [µg/mL]","MIC [7, 23] [µg/mL]",MIC (Proteus morganii 1510; [25]) [µg/mL],MIC [9] [µg/mL],MIC [10] [µg/mL],MIC [11] [µg/mL],MIC [12] [µg/mL],MIC [13] [µg/mL],MIC [14] [µg/mL],MIC (Shigella sonnei R 018) [µg/mL],"MIC [15, 26] [µg/mL]",MIC [16] [µg/mL],MIC [17] [µg/mL],MIC [18] [µg/mL],MIC [19] [µg/mL],also measured
"CCn1cc(C(=O)O)c(=O)c2cc(C=NOC(C)(C)C)sc21 [Compound I, 4,7-Dihydro-7-ethyl-4-oxo-2-tert-butoxyiminomethyl-thieno[2,3-b]pyridine-5-carboxylic acid]",> 50,> 100,1.56,> 25,> 50,> 25,> 50,> 25,> 50,> 25,3.12,> 25,> 25,> 25,> 50,> 50,> 25,> 25,> 25,> 25,"MIC [8, 24]: > 25 µg/mL"
"CCn1cc(C(=O)O)c(=O)c2cc(C=Nc3ccccc3O)sc21 [Compound F, 4,7-Dihydro-7-ethyl-2-N-(2-hydroxy-phenyl)-iminomethyl-4-oxo-thieno[2,3-b]pyridine-5-carboxylic acid]",100,> 100,,1.56,,,,,12.5,> 100,12.5,12.5,6.25,1.56,6.25,,3.12,> 100,> 100,100,MIC ([3]; Bacillus subtilis): 6.25 µg/mL; MIC ([5]; Escherichia coli): 3.12 µg/mL; MIC ([6]; Citrobacter freundii): 6.25 µg/mL; MIC ([7]; Proteus vulgaris): 3.12 µg/mL; MIC ([8]; Proteus mirabilis): 3.12 µg/mL; MIC (Proteus morganii 1510; 1510): 6.25 µg/mL; MIC ([15]; TYPHIMURIUM): 3.12 µg/mL
"CCn1cc(C(=O)O)c(=O)c2cc(C=NOCCCN(C)C)sc21 [Compound E, 4,7-Dihydro-7-ethyl-2-(3-N,N-dimethylamino-propoxy)-iminomethyl-4-oxo-thieno[2,3-b]pyridine-5-carboxylic acid]",6.25,100,6.25,6.25,25,12.5,12.5,25,25,50,3.12,25,12.5,6.25,25,25,25,> 100,> 100,> 100,"MIC [8, 24]: 3.12 µg/mL"
"CCn1cc(C(=O)O)c(=O)c2cc(C=Nc3ccc(OC)cc3)sc21 [Compound G, 4,7-Dihydro-7-ethyl-2-N-(4-methoxy-phenyl)-iminomethyl-4-oxo-thieno[2,3-b]pyridine-5-carboxylic acid]",> 100,> 100,,1.56,3.12,,1.56,0.78,12.5,100,12.5,12.5,6.25,1.56,6.25,3.12,6.25,> 100,> 100,> 100,MIC ([3]; Bacillus subtilis): 6.25 µg/mL; MIC ([6]; Citrobacter freundii): 6.25 µg/mL; MIC ([8]; Proteus mirabilis): 6.25 µg/mL
